In PMC9583322, “Vicinal Diaryl-Substituted Isoxazole and Pyrazole Derivatives with In Vitro Growth Inhibitory and In Vivo Antitumor Activity” (ACS Omega, 2022):

Experiments:
MCF10A = assay: Real-time cell electronic sensing (RT-CES); type: cell-based, human; conditions: 2.5, 5, 10 μM; immortalized normal breast epithelial cells
Procedure: (§1) To monitor the real-time cell growth of cells and cytotoxicity of compounds, the xCELLigence system (Roche Applied Sciences) was used. The cells were seeded onto 96-well E-Plate Mahlavu (1500 cell/well), MCF7, Huh7 (2500 cell/well), MDA-MB-231 (5000 cell/well), and MCF10A (6000 cell/well) in 100 μL of the medium/well. To examine the proliferation of cells, the cellular growth was monitored as cell index (CI) every 30 min for 24 h. When the cells were in a log growth phase, treatment with compounds 11 and 85 in 2.5, 5, and 10 μM concentrations was done, the CI values were recorded every 10 min for 24 h for controlling fast drug response and then every 30 min for the remaining 48 h for long-term dose response. After 72 h of incubation, the cellular growth ratios were calculated by CIDrug/CIDMSO.

[1] = test system: Mahlavu, Huh7, MDA-MB-231, and MCF-7; assay: Real-time cell electronic sensing (RT-CES); type: cell-based, human; conditions: 2.5, 5, 10 μM; compared to control (DMSO)
Procedure: as §1

[2] = test system: Mahlavu, Huh7, MCF7, and MDA-MB-231 cells; assay: Hoechst nuclear staining for cell death; type: cell-based, human; conditions: IC100 concentrations, 48 h
Procedure: Mahlavu, Huh7, MCF7, and MDA-MB-231 cells were cultured onto cover slides in six-well plates for 24 h according to their cell growth rate. […] The 1× PBS was used to wash the cells three times, and the cells were fixed with 100% ice-cold methanol. Then, the cells were stained with 1 μg/mL Hoechst (#33258, Sigma). The cells were analyzed under the fluorescence microscope (Nikon Eclipse 50i).

ACHN = assay: NCI-60 single-dose screen; type: cell-based; conditions: Homo sapiens, Renal Cancer, read-out: % Growth Inhibition (GI%)
Procedure: (§2) Moreover, in vitro single-dose anticancer screening of 11 and 85 at 10 μM was performed utilizing the stable panel of 60 cell lines comprising 9 different cancer types at the National Cancer Institute (NCI) under the Developmental Therapeutics Program (Table S1).[31]

CCRF-CEM = assay: NCI-60 single-dose screen; type: cell-based; conditions: Homo sapiens, Leukemia, read-out: % Growth Inhibition (GI%)
Procedure: as §2

DU-145 = assay: NCI-60 single-dose screen; type: cell-based; conditions: Homo sapiens, DU-145, Prostate Cancer, read-out: % Growth Inhibition (GI%)
Procedure: as §2

EKVX = assay: NCI-60 single-dose screen; type: cell-based; conditions: Homo sapiens, Non-Small Cell Lung Cancer, read-out: % Growth Inhibition (GI%)
Procedure: as §2

HCC-2998 = assay: NCI-60 single-dose screen; type: cell-based; conditions: Homo sapiens, HCC-2998, Colon Cancer, read-out: % Growth Inhibition (GI%)
Procedure: as §2

K-562 = assay: NCI-60 single-dose screen; type: cell-based; conditions: Homo sapiens, K562, K-562, Leukemia, read-out: % Growth Inhibition (GI%)
Procedure: as §2

LOX-IMVI = assay: NCI-60 single-dose screen; type: cell-based; conditions: Homo sapiens, Melanoma, read-out: % Growth Inhibition (GI%)
Procedure: as §2

NCI-H23 = assay: NCI-60 single-dose screen; type: cell-based; conditions: Homo sapiens, NCI-H23, Non-Small Cell Lung Cancer, read-out: % Growth Inhibition (GI%)
Procedure: as §2

NCI-H460 = assay: NCI-60 single-dose screen; type: cell-based; conditions: Homo sapiens, NCI-H460, Non-Small Cell Lung Cancer, read-out: % Growth Inhibition (GI%)
Procedure: as §2

NCI-H522 = assay: NCI-60 single-dose screen; type: cell-based; conditions: Homo sapiens, NCI-H522, Non-Small Cell Lung Cancer, read-out: % Growth Inhibition (GI%)
Procedure: as §2

OVCAR-8 = assay: NCI-60 single-dose screen; type: cell-based; conditions: Homo sapiens, OVCAR-8, Ovarian Cancer, read-out: % Growth Inhibition (GI%)
Procedure: as §2

SF-539 = assay: NCI-60 single-dose screen; type: cell-based; conditions: Homo sapiens, SF-539, CNS Cancer, read-out: % Growth Inhibition (GI%)
Procedure: as §2

SNB-75 = assay: NCI-60 single-dose screen; type: cell-based; conditions: Homo sapiens, SNB-75, CNS Cancer, read-out: % Growth Inhibition (GI%)
Procedure: as §2

SR = assay: NCI-60 single-dose screen; type: cell-based; conditions: Homo sapiens, Leukemia, read-out: % Growth Inhibition (GI%)
Procedure: as §2

logD7.4 = type: physicochemical; conditions: pH 7.4
Procedure: All chemicals were purchased from different suppliers such as Sigma-Aldrich Chemicals (Sigma-Aldrich Corp., St. Louis, MO), Merck Chemicals (Merck KGaA, Darmstadt, Germany), and ABCR (abcr GmbH, Karlsruhe, Germany). THF was dried from benzophenone-sodium. ^1H and ^13C NMR spectra were recorded in CDCl3 or DMSO-d6 on a Varian Mercury 400 MHz spectrometer using tetramethylsilane as the internal standard. Coupling constants were reported as Hertz and all chemical shifts were recorded as δ (ppm). High-resolution mass spectra data (HRMS) were collected using Waters LCT Premier XE Mass Spectrometer operating in ESI(+) or ESI(−) method, also coupled to an AQUITY Ultra Performance Liquid Chromatography system (Waters Corporation) using a UV detector monitoring at 254 nm. Purity for all final compounds was >95%, according to the UPLC-MS method using a water/MeCN solvent gradient containing 0.1% formic acid (1%/90%); flow rate: 0.3 mL/min, column: Aquity BEH C18 column (2.1 × 100 mm^2, 1.7 mm). All microwave irradiation reactions were carried out in a Biotage Initiator + microwave apparatus with Biotage sealed microwave vials. […] Melting points of the compounds were determined using the SMP50 automated melting point apparatus (Stuart, Staffordshire, ST15 OSA, U.K.). […]

| SMILES | Real-time cell growth response, MCF10A (MCF10A) | Real-time cell growth response, cancer cell lines [1] | Nuclear morphology by Hoechst staining [2] | inhibition at 10 µM (ACHN) | inhibition at 10 µM (CCRF-CEM) | inhibition at 10 µM (DU-145) | inhibition at 10 µM (EKVX) | inhibition at 10 µM (HCC-2998) | inhibition at 10 µM (K-562) | inhibition at 10 µM (LOX-IMVI) | inhibition at 10 µM (NCI-H23) | inhibition at 10 µM (NCI-H460) | inhibition at 10 µM (NCI-H522) | inhibition at 10 µM (OVCAR-8) | inhibition at 10 µM (SF-539) | inhibition at 10 µM (SNB-75) | inhibition at 10 µM (SR) | logD (logD7.4) |
| --- | --- | --- | --- | --- | --- | --- | --- | --- | --- | --- | --- | --- | --- | --- | --- | --- | --- | --- |
| Cc1ccccc1COc1ccc(-c2noc(C)c2-c2ccc(Cl)cc2)cc1 [compound 11, 4-(4-Chlorophenyl)-5-methyl-3-(4-((2-methylbenzyl)oxy)phenyl)isoxazole] | no difference in the growth | inhibition in the growth | Apoptotic bodies were detectable | 33% | 61.8% | 22.6% | 24.9% | 13.4% | 85.6% | 32% | 26.2% | 45.3% | 74.5% | 24.2% | 36.5% | 47.1% | 66% |  |
| Cc1ccccc1COc1ccc(-c2ccnn2-c2ccc(Cl)cc2)cc1 [compound 85, 1-(4-Chlorophenyl)-5-(4-((2-methylbenzyl)oxy)phenyl)-1H-pyrazole] | no difference in the growth | inhibition in the growth | Apoptotic bodies were detectable | 22.4% | 57.6% | 11.9% | 22.9% | 10.9% | 86.3% | 35.7% | 23.4% | 41.7% | 70.9% | 24.8% | 28.2% | 39.3% | 66.2% | 6.64 |
